Results reported in patent US20160326142A1, “PYRAZOLE CARBOXAMIDE COMPOUNDS, COMPOSITIONS AND METHODS OF USE” (Genentech, Inc., priority 2012, published 2016).

Molecular target: T1, ITK (Homo sapiens, UniProt Q08881)
T1 construct: purchased Invitrogen PV3875
T1 sequence (Q08881 1-620): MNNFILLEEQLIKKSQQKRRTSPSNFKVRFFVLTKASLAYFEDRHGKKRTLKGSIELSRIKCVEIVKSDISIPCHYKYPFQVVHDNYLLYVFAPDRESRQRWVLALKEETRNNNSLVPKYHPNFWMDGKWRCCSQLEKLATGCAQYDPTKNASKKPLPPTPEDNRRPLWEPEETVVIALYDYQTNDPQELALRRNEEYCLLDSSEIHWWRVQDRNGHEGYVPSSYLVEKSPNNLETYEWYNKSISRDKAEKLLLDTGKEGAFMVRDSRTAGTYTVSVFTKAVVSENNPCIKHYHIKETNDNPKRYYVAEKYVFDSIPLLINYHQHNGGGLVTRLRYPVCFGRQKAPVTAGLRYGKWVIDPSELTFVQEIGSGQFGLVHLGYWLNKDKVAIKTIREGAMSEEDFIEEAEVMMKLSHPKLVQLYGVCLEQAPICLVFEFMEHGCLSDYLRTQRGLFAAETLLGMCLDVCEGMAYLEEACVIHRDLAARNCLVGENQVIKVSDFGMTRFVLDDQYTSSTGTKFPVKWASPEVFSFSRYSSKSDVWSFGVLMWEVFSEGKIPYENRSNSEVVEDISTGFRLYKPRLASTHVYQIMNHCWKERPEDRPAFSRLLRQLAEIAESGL
Test: ITK enzyme assay (Caliper or LCMS peptide phosphorylation)
Format: biochemical
Conditions: purified ITK (Invitrogen PV3875), 20 μM ATP, Ki by Morrison's quadratic equation
In short: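 Ki values come from Morrison quadratic fits of activity versus inhibitor concentration, adjusted for ATP-competitive inhibition against ATP/Km,app. Substrate and phosphopeptide from purified ITK reactions were resolved either microfluidically (Caliper, EDTA stop) or by LC-MS MRM (TCA stop).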

SMILES | Ki [nM]
CN(CCC(c1ccccc1)n1cc(NC(=O)c2n[nH]c3c2CCC(C)(C)C3)cn1)C1COC1 (single isomer, unassigned) [Example 58b, 6,6-dimethyl-N-(1-(3-(methyl(oxetan-3-yl)amino)-1-phenylpropyl)-1H-pyrazol-4-yl)-4,5,6,7-tetrahydro-1H-indazole-3-carboxamide] | 0.6
CC12Cc3[nH]nc(C(=O)Nc4cnn(C(CS(C)(=O)=O)c5cccnc5)c4)c3CC1C2 (single isomer, unassigned) [Example 93a, 5a-methyl-N-(1-(2-(methylsulfonyl)-1-(pyridin-3-yl)ethyl)-1H-pyrazol-4-yl)-1,4,4a,5,5a,6-hexahydrocyclopropa[f]indazole-3-carboxamide] | < 0.1
CC(c1cccnc1)n1cc(NC(=O)c2n[nH]c3c2CCC(C)(C)C3)cn1 (single isomer, unassigned) [Example 106b, 6,6-dimethyl-N-(1-(1-(pyridin-3-yl)ethyl)-1H-pyrazol-4-yl)-4,5,6,7-tetrahydro-1H-indazole-3-carboxamide] | 5
CC1(C)CCc2c(C(=O)Nc3cnn(C(c4cccnc4)C4CC[S+]([O-])CC4)c3)n[nH]c2C1 (single isomer, unassigned) [Example 147b, 6,6-dimethyl-N-(1-((1-oxidotetrahydro-2H-thiopyran-4-yl)(pyridin-3-yl)methyl)-1H-pyrazol-4-yl)-4,5,6,7-tetrahydro-1H-indazole-3-carboxamide] | 4
CNCCC(c1ccccc1)n1cc(NC(=O)c2n[nH]c3c2CCC(C)(C)C3)cn1 (single isomer, unassigned) [Example 39b, 6,6-dimethyl-N-(1-(3-(methylamino)-1-phenylpropyl)-1H-pyrazol-4-yl)-4,5,6,7-tetrahydro-1H-indazole-3-carboxamide] | 6
O=C(Nc1cnn(Cc2ccccc2)c1)c1n[nH]c2c1CCC(CO)C2 (single isomer, unassigned) [Example 14b, N-(1-benzyl-1H-pyrazol-4-yl)-6-(hydroxymethyl)-4,5,6,7-tetrahydro-1H-indazole-3-carboxamide] | 21
Cn1cc(C(c2ccccc2)n2cc(NC(=O)c3n[nH]c4c3CC3CC3C4)cn2)cn1 (single isomer, unassigned) [Example 27a, N-(1-((1-methyl-1H-pyrazol-4-yl)(phenyl)methyl)-1H-pyrazol-4-yl)-1,4,4a,5,5a,6-hexahydro cyclopropa[f]indazole-3-carboxamide] | 30
CC12Cc3[nH]nc(C(=O)Nc4cnn(C(c5ccccc5)C5CC[S+]([O-])CC5)c4)c3CC1C2(F)F (single isomer, unassigned) [Example 142a, 5,5-difluoro-5a-methyl-N-(1-((1-oxidotetrahydro-2H-thiopyran-4-yl)(phenyl)methyl)-1H-pyrazol-4-yl)-1,4,4a,5,5a,6-hexahydrocyclopropa[f]indazole-3-carboxamide] | < 0.1
CC(c1ncco1)n1cc(NC(=O)c2n[nH]c3c2CCC(C)(C)C3)cn1 (single isomer, unassigned) [Example 103a, 6,6-dimethyl-N-(1-(1-(oxazol-2-yl)ethyl)-1H-pyrazol-4-yl)-4,5,6,7-tetrahydro-1H-indazole-3-carboxamide] | 20
CN(C)CCC(c1ccccc1)n1cc(NC(=O)c2n[nH]c3c2C2CC2CC3)cn1 (single isomer, unassigned) [Example 26b, N-(1-(3-(dimethylamino)-1-phenylpropyl)-1H-pyrazol-4-yl)-3,4,5,5a,6,6a-hexahydrocyclopropa[e]indazole-1-carboxamide] | 46
O=C(Nc1cnn(Cc2ccccc2)c1)c1n[nH]c2c1C1CC1CC2 (single isomer, unassigned) [Example 23b, N-(1-benzyl-1H-pyrazol-4-yl)-3,4,5,5a,6,6a-hexahydrocyclopropa[e]indazole-1-carboxamide] | 550
CC1(C)CCc2c(C(=O)Nc3cnn(C(c4cccnc4)C4CCS(=O)(=O)CC4)c3)n[nH]c2C1 (single isomer, unassigned) [Example 74a, N-(1-((1,1-dioxidotetrahydro-2H-thiopyran-4-yl)(pyridin-3-yl)methyl)-1H-pyrazol-4-yl)-6,6-dimethyl-4,5,6,7-tetrahydro-1H-indazole-3-carboxamide] | 0.2
CC1(C)CCc2c(C(=O)Nc3cnn(C(c4cccnc4)C4CCCCS4(=O)=O)c3)n[nH]c2C1 (single isomer, unassigned) [Example 144d, N-(1-((1,1-dioxidotetrahydro-2H-thiopyran-2-yl)(pyridin-3-yl)methyl)-1H-pyrazol-4-yl)-6,6-dimethyl-4,5,6,7-tetrahydro-1H-indazole-3-carboxamide] | 2
CC1(C)CCc2c(C(=O)Nc3cnn(C(c4cccnc4)C4CS(=O)(=O)C4)c3)n[nH]c2C1 (single isomer, unassigned) [Example 117a] | 0.2
CC(c1nccs1)n1cc(NC(=O)c2n[nH]c3c2CCC(C)(C)C3)cn1 (single isomer, unassigned) [Example 92a, 6,6-dimethyl-N-(1-(1-(thiazol-2-yl)ethyl)-1H-pyrazol-4-yl)-4,5,6,7-tetrahydro-1H-indazole-3-carboxamide] | 7
N#Cc1cccc(Cn2cc(NC(=O)c3n[nH]c4c3CCC(O)C4)cn2)c1 (single isomer, unassigned) [Example 5b, N-(1-(3-cyanobenzyl)-1H-pyrazol-4-yl)-6-hydroxy-4,5,6,7-tetrahydro-1H-indazole-3-carboxamide] | 380
CCC1(C)CCc2c(C(=O)Nc3cnn(Cc4ccccc4)c3)n[nH]c2C1 (single isomer, unassigned) [Example 56b, N-(1-benzyl-1H-pyrazol-4-yl)-6-ethyl-6-methyl-4,5,6,7-tetrahydro-1H-indazole-3-carboxamide] | 13
CC12Cc3c(C(=O)Nc4cnn(Cc5ccccc5)c4)n[nH]c3C1C2 (single isomer, unassigned) [Example 151b, N-(1-benzyl-1H-pyrazol-4-yl)-4a-methyl-4,4a,5,5a-tetrahydro-1H-cyclopropa[4,5]cyclopent a[1,2-c]pyrazole-3-carboxamide] | 12
